Measured values reported in patent US9273067B2, “Pyrazolopyrimidine macrocycles as inhibitors of human immunodeficiency virus replication” (BRISTOL-MYERS SQUIBB COMPANY, priority 2014, dated 2016).

The molecules below were run on NL-RLuc virus (recombinant HIV NL4-3 with Renilla Luciferase) in MT-2 cells (assay: Inhibition of HIV replication (NL-RLuc virus in MT-2 cells, luciferase readout)). Settings: MT2, 120 h, NL-RLuc virus infecting MT-2 cells, 5 days of incubation, 10% FBS, luciferase quantitation; at least 2 experiments.
Format: cell-based, human immunodeficiency virus (HIV)
Text: Inhibition of HIV Replication:
A recombinant NL-RLuc proviral clone was constructed in which a section of the nef gene from NL4-3 was replaced with the Renilla Luciferase gene. This virus is fully infectious and can undergo multiple cycles of replication in cell culture. In addition, the luciferous reporter provides a simple and easy method for quantitating the extent of virus growth and consequently, the antiviral activity of test compounds. The plasmid pNLRLuc contains the proviral NL-Rluc DNA cloned into pUC 18 at the PvuII site. The NL-RLuc virus was prepared by transfection of 293T cells with the plasmid pNLRLuc. Transfections were performed using the LipofectAMINE PLUS kit from Invitrogen (Carlsbad, Calif.) according to the manufacturer and the virus generated was titered in MT-2 cells. For susceptibility analyses, the titrated virus was used to infect MT-2 cells in the presence of compound, and after 5 days of incubation, cells were processed and quantitated for virus growth by the amount of expressed luciferase. Assay media was RPMI 1640 supplemented with 10% heat inactivated fetal bovine serum (FBS), 100 units/ml penicillin G/100 units/ml streptomycin, 10 mM HEPES buffer pH 7.55 and 2 mM L-glutamine. The results from at least 2 experiments were used to calculate the EC50 values. Luciferase was quantitated using the Dual Luciferase kit from Promega (Madison, Wis.). Susceptibility of viruses to compounds was determined by incubation in the presence of serial dilutions of the compound. The 50% effective concentration (EC50) was calculated by using the exponential form of the median effect equation where (Fa)=1/[1+(ED50/drug conc.)^m] (Johnson V A, Byington R T. Infectivity Assay. In Techniques in HIV Research. ed. Aldovini A, Walker B D. 71-76. New York: Stockton Press. 1990).
Molecule `Cc1cc2c(cc1Cl)COCc1cc3nc(C)c([C@H](OC(C)(C)C)C(=O)O)c(n3n1)N1CCC(C)(CC1)OCCCCC[C@H](C)O2` [Example 70, (2S)-2-(tert-Butoxy)-2-[(20S)-15-chloro-4,16,20,27-tetramethyl-11,19,26-trioxa-1,5,7,8-tetraazapentacyclo[25.2.2.1^6,^9.0^2,^7.0^13,^18]dotriaconta-2,4,6(32),8,13,15,17-heptaen-3-yl]acetic acid] has an EC50 of 43 nM. With `Cc1nc2cc3nn2c(c1[C@H](OC(C)(C)C)C(=O)O)N1CCC(C)(CC1)OCCCCc1ccccc1C(=O)NC3` [Example 15, (2S)-2-(tert-Butoxy)-2-{4,24-dimethyl-12-oxo-23-oxa-1,5,7,8,11-pentaazapentacyclo[22.2.2.1^6,^9.0^2,^7.0^13,^18]nonacosa-2,4,6(29),8,13(18),14,16-heptaen-3-yl}acetic acid] the EC50 was 120 nM. Molecule `Cc1nc2cc3nn2c(c1[C@H](OC(C)(C)C)C(=O)O)N1CCC(C)(CC1)OCCCC[C@H](C)Oc1ccc(F)c(F)c1CCC3` [Example 42, (2S)-2-(tert-Butoxy)-2-[(20S)-14,15-difluoro-4,20,26-trimethyl-19,25-dioxa-1,5,7,8-tetraazapentacyclo[24.2.2.1^6,^9.0^2,^7.0^13,^18]hentriaconta-2,4,6(31),8,13(18),14,16-heptaen-3-yl]acetic acid] has an EC50 of 2 nM. `Cc1nc2cc3nn2c(c1[C@H](OC(C)(C)C)C(=O)O)N1CCC(C)(CC1)OCCCC[C@H](C)Oc1cc2ccccc2cc1COC3` [Example 53, (2S)-2-(tert-butoxy)-2-[(24S)-4,24,30-trimethyl-11,23,29-trioxa-1,5,7,8-tetraazahexacyclo[28.2.2.1^6,^9.0^2,^7.0^13,^22.0^15,^20]pentatriaconta-2,4,6(35),8,13,15,17,19,21-nonaen-3-yl]acetic acid] showed an EC50 of 2 nM. `Cc1nc2cc3nn2c(c1[C@H](OC(C)(C)C)C(=O)O)N1CCC(C)(CC1)OCCCCCCc1ccccc1COC3` [Example 58, (2S)-2-(tert-Butoxy)-2-{4,26-dimethyl-11,25-dioxa-1,5,7,8-tetraazapentacyclo[24.2.2.1^6,^9.0^2,^7.0^13,^18]hentriaconta-2,4,6(31),8,13(18),14,16-heptaen-3-yl}acetic acid] gave an EC50 of 62 nM. `Cc1cc(CN2CCCCOC3(C)CCN(CC3)c3c([C@H](OC(C)(C)C)C(=O)O)c(C)nc4cc(nn34)CNC(=O)C2=O)ccc1F` [Example 19, (2S)-2-(tert-Butoxy)-2-{14-[(4-fluoro-3-methylphenyl)methyl]-4,20-dimethyl-12,13-dioxo-19-oxa-1,5,7,8,11,14-hexaazatetracyclo[18.2.2.1^6,^9.0^2,^7]pentacosa-2,4,6(25),8-tetraen-3-yl}acetic acid] was tested, and the EC50 was 34 nM. `Cc1cc(CN2CC=CCOC3(C)CCN(CC3)c3c([C@H](OC(C)(C)C)C(=O)O)c(C)nc4cc(nn34)CNC(=O)C2=O)ccc1F` [Example 18, (2S)-2-(tert-Butoxy)-2-[14-[(4-fluoro-3-methylphenyl)methyl]-4,20-dimethyl-12,13-dioxo-19-oxa-1,5,7,8,11,14-hexaazatetracyclo[18.2.2.1^6,^9.0^2,^7]pentacosa-2,4,6(25),8,16-pentaen-3-yl]acetic acid] was tested, and the EC50 was 122 nM. With `Cc1ccc2c(c1)O[C@@H](C)CCCCOC1(C)CCN(CC1)c1c([C@H](OC(C)(C)C)C(=O)O)c(C)nc3cc(nn13)CN(C1CC1)C2` [Example 64, (2S)-2-(tert-Butoxy)-2-[(20S)-11-cyclopropyl-4,16,20,26-tetramethyl-19,25-dioxa-1,5,7,8,11-pentaazapentacyclo[24.2.2.1^6,^9.0^2,^7.0^13,^18]hentriaconta-2,4,6(31),8,13(18),14,16-heptaen-3-yl]acetic acid] the EC50 was 12 nM. Work on `Cc1ccc2c(c1)O[C@@H](C)CCCCOC1(C)CCN(CC1)c1c([C@H](OC(C)(C)C)C(=O)O)c(C)nc3cc(nn13)COC2` [Example 38, (2S)-2-(tert-Butoxy)-2-[(20S)-4,16,20,26-tetramethyl-11,19,25-trioxa-1,5,7,8-tetraazapentacyclo[24.2.2.1^6,^9.0^2,^7.0^13,^18]hentriaconta-2,4,6(31),8,13(18),14,16-heptaen-3-yl]acetic acid] yielded an EC50 of 2 nM. Work on `Cc1nc2cc3nn2c(c1[C@H](OC(C)(C)C)C(=O)O)N1CCC(C)(CC1)OCCCC[C@H](C)Oc1cc(F)c(F)cc1CCC3` [Example 43, (2S)-2-(tert-Butoxy)-2-[(20S)-15,16-difluoro-4,20,26-trimethyl-19,25-dioxa-1,5,7,8-tetraazapentacyclo[24.2.2.1^6,^9.0^2,^7.0^13,^18]hentriaconta-2,4,6(31),8,13(18),14,16-heptaen-3-yl]acetic acid] yielded an EC50 of 1 nM. For `Cc1nc2cc3nn2c(c1[C@H](OC(C)(C)C)C(=O)O)N1CCC(C)(CC1)OCCCCOC1(CCCCC1)c1cn(nn1)C3` [Example 8, (2S)-2-(tert-Butoxy)-2-{4′,22′-dimethyl-16′,21′-dioxa-1′,5′,7′,8′,11′,12′,13′-heptaazaspiro[cyclohexane-1,15′-pentacyclo[20.2.2.1^6,^9.1^11,^14.0^2,^7]octacosane]-2′,4′,6′(28′),8′,12′,14′(27′)-hexaen-3′-yl}acetic acid], the EC50 was 111 nM.

Same assay, conditions: NL-RLuc virus infecting MT-2 cells, 5 days of incubation, 10% FBS, luciferase quantitation; at least 2 experiments; read-out: EC50
In the case of `Cc1nc2cc3nn2c(c1[C@H](OC(C)(C)C)C(=O)O)N1CCC(C)(CC1)O/C=C\CCc1ccccc1OC3` [Example 21, (2S)-2-(tert-Butoxy)-2-[(20Z)-4,23-dimethyl-11,22-dioxa-1,5,7,8-tetraazapentacyclo[21.2.2.1^6,^9.1^2,^7.0^12,^17]octacosa-2,4,6(28),8,12(17),13,15,20-octaen-3-yl]acetic acid], the EC50 is reported as 646 nM. `Cc1nc2cc3nn2c(c1[C@H](OC(C)(C)C)C(=O)O)N1CCC(C)(CC1)OCC=CCOc1ccccc1CC(=O)NC3` [Example 16, (2S)-2-(tert-Butoxy)-2-[4,26-dimethyl-12-oxo-20,25-dioxa-1,5,7,8,11-pentaazapentacyclo[24.2.2.1^6,^9.1^2,^7.0^14,^19]hentriaconta-2,4,6(31),8,14(19),15,17,22-octaen-3-yl]acetic acid] gave an EC50 of 21 nM. `Cc1nc2cc3nn2c(c1[C@H](OC(C)(C)C)C(=O)O)N1CCC(C)(CC1)OC/C=C\Cc1ccccc1OC3` [Example 22, (2S)-2-(tert-Butoxy)-2-[(19Z)-4,23-dimethyl-11,22-dioxa-1,5,7,8-tetraazapentacyclo[21.2.2.1^6,^9.1^2,^7.0^12,^17]octacosa-2,4,6(28),8,12(17),13,15,19-octaen-3-yl]acetic acid] showed an EC50 of 141 nM.

Same assay, conditions: {}
`Cc1nc2cc3nn2c(c1[C@H](OC(C)(C)C)C(=O)O)N1CCC(C)(CC1)OCCCCC(c1ccccc1)Oc1ccc(F)cc1COC3` (stereo partly drawn) [Example 51, (2S)-2-(tert-butoxy)-2-{15-fluoro-4,26-dimethyl-20-phenyl-11,19,25-trioxa-1,5,7,8-tetraazapentacyclo[24.2.2.1^6,^9.0^2,^7.0^13,^18]hentriaconta-2,4,6(31),8,13(18),14,16-heptaen-3-yl}acetic acid] showed an EC50 of 18 nM. `CCCC1CCCCOC2(C)CCN(CC2)c2c([C@H](OC(C)(C)C)C(=O)O)c(C)nc3cc(nn23)COCc2cc(F)ccc2O1` (stereo partly drawn) [Example 50, (2S)-2-(tert-butoxy)-2-{15-fluoro-4,26-dimethyl-20-propyl-11,19,25-trioxa-1,5,7,8-tetraazapentacyclo[24.2.2.1^6,^9.0^2,^7.0^13,^18]hentriaconta-2,4,6(31),8,13(18),14,16-heptaen-3-yl}acetic acid] was tested, and the EC50 was 19 nM.
